Results taken from publication PMC11189555, “Aryl amino acetamides prevent Plasmodium falciparum ring development via targeting the lipid-transfer protein PfSTART1” (Nature Communications, 2024).

Columns and labels:
LSG1 (Q8ILF2) = test: Solvent-PISA (solvent proteome profiling, DIA-MS); assay type: binding, Plasmodium falciparum; details: WEHI991_vs_DMSO, gradient G1, LSG1
VPS51 (Q8I2A9) = test: Solvent-PISA (solvent proteome profiling, DIA-MS); assay type: binding, Plasmodium falciparum; details: WEHI991_vs_DMSO, gradient G1, VPS51
RECQ1 (Q8I2W7) = test: Solvent-PISA (solvent proteome profiling, DIA-MS); assay type: binding, Plasmodium falciparum; details: WEHI991_vs_DMSO, gradient G1, RECQ1
Hyp1-Nluc parasites = test: Egress, invasion & recovery assay (Nluc bioluminescence, smears); assay type: cell-based, Plasmodium falciparum; details: schizonts treated 4 h: M-833 2 µM, W-991 60 nM, ML10 30 nM, E64 10 µM, heparin 100 µg/mL; then washed off
From the text: To measure egress, invasion, and follow-up recovery in the presence of different compounds, we adapted the method developed in[11], using Hyp1-Nluc parasites. A full description is in the Supplementary Information. […]
and compound 4. Note that M-833 was first purchased from MolPort (MolPort -002-267-916) then made in-house at WEHI: the differences observed in EC50s across experiments are attributed to the different batches of M -833. […]
Egress, invasion & recovery assay. To measure egress, invasion and follow up recovery in the presence of different compounds, we adapted the method developed in6, using Hyp1-Nluc parasites7. These parasites episomally express the exported PEXEL protein Hyp1 (PF3D7_0113300) tagged with a NanoLuc luciferase (NLuc) and were selected with 2.5 nM WR99210 (Jacobus). Highly synchronised schizonts were obtained using ML10 (LifeArc) and sorbitol synchronisation, and Percoll-purified (the culture was gently layered over 67% Percoll (Cytiva) in RPMI, and centrifuged for 15 min at 1500 g and the schizont layer was collected and washed). In a 96-well plate, […]
cultures were set up in 4 replicates (3 replicates for the Nluc readout, and one replicate for Giemsa smears) with 1-2% parasitemia, 2% haematocrit, with the following […]
100 μg/ml heparin (Sigma) and 10 μM E64 (Sigma). The schizonts were allowed to egress and invade for 4 h at 37°C. A “background” plate without treatment was left in the fridge during this time. After 4 h, cultures were sorbitol -treated to eliminate schizonts that have not egressed. Smears were made every day for the following 3 days, and 5 μL of the resuspended cultures were taken to measure Nluc activity (to assess parasite’s presence). To measure Nluc activity, 5 μL culture were added to 45 μL NanoGlo reagent (1x Promega lysis buffer and NanoGlo reagent; Promega). The average luminescence of the background cultures was subtracted to the average luminescence of each sample. […]
The viable parasite value was then expressed in log units and parasite reduction ratio was calculated as a decrease in […]

| Compound | Differential abundance (LSG1 (Q8ILF2)) | Differential abundance (VPS51 (Q8I2A9)) | Differential abundance (RECQ1 (Q8I2W7)) | parasite growth (Nluc bioluminescence) followed 72 h after 4 h treatment (Hyp1-Nluc parasites) |
| --- | --- | --- | --- | --- |
| CC(C)(Nc1ccc(Cl)c(S(=O)(=O)N2CCOCC2)c1)C(=O)Nc1ccc(F)c(Cl)c1 [WEHI991] | 0.5417 | 0.7605 | 0.6685 |  |
| heparin [reference compound] |  |  |  | virtually no recovery after three days |
